Columns and labels:
[1] = system: B16F10 cells; experiment: Experimental metastasis model; format: in vivo, C57BL/6 mice; details: B16F10 tail vein; 1.5 or 4.5 mg/kg intraperitoneally every day, FIG. 4D
Protocol: B16F10 cells (2×10^6) were slowly injected into the lateral tail vein of C57BL/6 mice to initiate tumor metastasis. Fmoc-10a (1.5 or 4.5 mg/kg) was intraperitoneally administered to mice every day from 3 days before tumor cell injection to 21 days after tumor cell injection (the day sacrificed).

[2] = system: late EPCs; experiment: Cytotoxicity assay (LDH release); format: cell-based, human; details: 48 h, even at high concentration (30 μM), FIG. 1C
Protocol: (§1) This investigation conforms with the principles outlined in the Declaration of Helsinki for use of human tissue. Ethical approval was granted by the Institutional Review Board of the Mackay Memorial Hospital, Taipei, Taiwan. Informed consent was obtained from healthy donors before the collection of peripheral blood (80 mL). The peripheral blood mononuclear cells (PBMCs) were fractionated from other blood components by centrifugation on Ficoll-Paque™ plus (GE Healthcare) according to the manufacturer's instructions. CD34-positive progenitor cells were obtained and cultured. In brief, the cells were isolated from PBMCs using CD34 MicroBead kit and MACSTM Cell Separation System (all from Miltenyi Biotec). CD34-positive EPCs were maintained in MV2 complete medium (PromoCell) consisting of endothelial basal medium, 20% fetal bovine serum, hEGF, VEGF, hFGF-B, IGF-1, ascorbic acid, and heparin. 1×10^6 cells/cm^2 were seeded on fibronectin-coated dish (BD Biosciences) and maintained in 37° C. incubator under a humidified 95% air and 5% CO2 atmosphere.
EPCs were treated with MV2 complete medium containing 2% FBS for 48 h in the absence or presence of Fmoc-10a. The percentage of LDH release was calculated from the ratio of LDH activity in the medium to LDH activity in the cell lysate after Fmoc-10a treatment.

[3] = system: hyperoxia-induced retinal neovascularization; experiment: Oxygen-induced retinopathy (OIR) model; format: in vivo, BALB/c-nude mice; details: retinal whole mounts, FIG. 5
Source text: The mouse model of OIR has been widely used to induce retinal neovascularization in studies related to retinal ischaemic diseases, including AMD, and in studies evaluating the efficacy of antiangiogenic compounds. Briefly, BALB/c-nude mice at postnatal day (P7) are subjected to hyperoxia (75% oxygen) along with their nursing dam for 5 days (P12), and then to room air to produce retinal neovascularization. Neovascularization occurs upon return to normoxia and peaks at P17. All of the mice in the OR model were perfusion fixed via left ventricular puncture at the time of euthanasia, with 5 ml rhodamine-conjugated dextran. Then, angiography of retinal vasculature was performed and retinal whole mounts were prepared to score features of retinopathy.

[4] = system: late EPCs; experiment: Transwell cell migration assay; format: cell-based, human; details: 16 h treatment, FIG. 1D
Protocol: as §1, with “1×10^6 cells/cm^2 were seeded on fibronectin-coated dish (BD Biosciences) and maintained in 37° C. incubator under a humidified 95% air and 5% CO2 atmosphere.” left out
EPCs (5×10^4 cells/well) were seeded onto the upper chamber with MV2 complete medium, then incubated in the bottom chamber with MV2 complete medium containing 2% FBS with the indicated concentrations of Fmoc-10. […] Cell migration was quantified by counting the number of stained cells in 10 random fields with the inverted phase contrast microscope and photographed.

[5] = system: late EPCs; experiment: Cell proliferation assay (MTT); format: cell-based, human; details: 48 h treatment, FIG. 1B
Protocol: as §1
EPCs (5×10^3 cells/well) were seeded onto 96-well plates. After 24 h incubation, the culture medium was removed and cells were incubated with fresh MV2 complete medium containing 2% FBS for 48 h in the absence or presence of Fmoc-10a. […] Formazan crystal was lysed by dimethyl sulfoxide (DMSO) and absorbance was measured at 550 nm with ELISA-reader.

[6] = system: VEGF release from B16F10 melanoma cells; experiment: VEGF ELISA assay; format: cell-based, mouse; details: B16F10, 24 hr, ELISA of supernatant, FIG. 4B
Protocol: (§2) Mouse melanoma cell line (B16F10) was obtained from American Type Culture Collection (ATCC, Manassas, Va.) and cultured in DMEM containing 10% FBS, penicillin (100 units/ml), streptomycin (100 μg/ml), and L-glutamine (2[…]mM). Cells were maintained in humidified air containing 5% CO2 at 37° C.
B16F10 cells were treated with various concentrations of Fmoc-10a or vehicle for 24 hr, and then the supernatant was collected to examine the amount of vascular endothelial growth factor (VEGF) protein. VEGF mouse ELISA Kit (Novex, Invitrogen) was used according to the manufacturer's instructions.

[7] = system: B16F10 melanoma cells; experiment: Matrigel invasion assay; format: cell-based, mouse; details: B16F10, 16 h, FIG. 4A
Protocol: as §2
The upper side of the filters was coated with Matrigel (BD Biosciences, Bedford, Mass.) at a concentration of 125 […]μg/cm^2. B16F10 cells (5×10^4 cells/well) were seeded onto the upper chamber with serum-free medium, then incubated in the bottom chamber with culture medium containing 10% FBS in the absence or presence of Fmoc-10a. After 16 h of treatment, cells on the upper side of the filters were mechanically removed, and those migrated on the lower side were fixed with 4% formaldehyde, then stained with 0.5% crystal violet for 10 min. Finally, invaded cells were quantified by counting the number of stained cells in 10 random fields with the inverted phase contrast microscope and photographed.

[8] = system: late EPCs; experiment: Capillary tube formation assay on Matrigel; format: cell-based, human; details: 16 h treatment, FIG. 1E
Protocol: as §1
Matrigel (BD Biosciences, Bedford, Mass.), which was used to promote the differentiation of EPCs into a capillary tube-like structure, was added to 48-well plates. […] Tube formation was quantified by measuring the long axis of each tube in 3 random fields per well by using Image-Pro Plus software.

[9] = system: B16F10 melanoma; experiment: Subcutaneous xenograft model; format: in vivo, C57BL/6 mice; details: daily intraperitoneal injection, FIG. 4C
Protocol: B16F10 cells (2×10^6) in a volume of 100 μL were injected subcutaneously into the right flank of the C57BL/6 mice. After 9 days, when tumors reached 2 mm in diameter, the mice were randomly given vehicle or the indicated doses of Fmoc-10a daily by intraperitoneal injection. Tumor size and body weight were measured every day. The tumor volume was calculated according to the following formula: V=(length×width^2/2). In accordance with the Animal Ethics Committee, the experiments should be stopped when an unbearable situation appeared in animals.

[10] = system: VEGF-induced microvessel formation; experiment: Directed in vivo angiogenesis assay (DIVAA); parameters: species or system C57BL/6 mice; details: VEGF-containing DIVAA tubes implanted in mice, 15 days, FIG. 3B
Protocol: Surgical silicone tubes were filled at 4° C. with Matrigel containing VEGF with or without Fmoc-10a. Then, the dorsal haunches of the anesthetized mice (C57BL/6 mice) were shaved and sterile prepped. A 5 mm cutaneous incision was made and a 10 mm deep subcutaneous pocket was created with a sterile hemostat. DIVAA tubes were incubated at 37° C. for 1 hour to allow gel formation and then implanted into the dorsal flank of mice. After 15 days, DIVAA tubes were taken and photographed. Neovessels were quantified by measuring the hemoglobin of the plug with the Drabkin method. All procedures involving animal experiment were approved by the Institutional Animal Care and Use Committee at Mackay Medical College.

[11] = system: early EPCs; experiment: Early EPC chemotaxis assay (Transwell); format: cell-based, human; details: 4 hours, FIG. 2C
Protocol: The chemotactic motility of early EPCs was evaluated using a Transwell. The lower filter surface was coated with gelatin. Fmoc-10a in presence or absence of MV2 complete medium was placed in the lower wells. The chamber was incubated at 37° C. for 4 hours. Cells were fixed with cold methanol and stained with 0.5% crystal violet.

[12] = system: early EPCs; experiment: Colony-forming assay (CFU-Hill); format: cell-based, human; details: FIGS. 2A&2B
Source text: Isolated PBMCs are resuspended in MV2 complete medium. After 2 days, the nonadherent cells were collected and replated onto a fibronectin-coated 24-well plate. Five days later, the number of colony-forming units (CFUs) od early EPCs per well was counted.

[13] = system: VEGF-induced vessels sprouting from aortic rings; experiment: Aortic ring sprouting assay (ex vivo); parameters: species or system Sprague-Dawley rats; details: VEGF 20 ng/ml, day 8, FIG. 3A
Protocol: Aortas were harvested from 8- to 10-week-old Sprague-Dawley rats. Following a complete washing, the aortas were cut into 1 mm ring segments. The aortic rings were placed in the 48-well plates which were pre-coated with 130 μl Matrigel and polymerized at 37° C. The wells were subsequently overlaid with another 50 μl Matrigel for sealing. VEGF (20 ng/ml) with or without Fmoc-10a was then added to the well. The cultured medium was changed every 3 days. Sprouting endothelial cells were observed and photographed on day 8. The area of sprouting vessels was measured quantitatively by Image-Pro Plus software.

| Compound | lung metastasis of melanoma cancer (pulmonary colony number) [1] | LDH release of late EPCs [2] | hyperoxia-induced pathological neovascularization in mice [3] | cell migration of late EPCs [4] | cell proliferation of late EPCs [5] | production of VEGF in melanoma cells [6] | cell invasion of melanoma cells [7] | tube formation of late EPCs [8] | tumor growth of melanoma cells [9] | microvessel formation in the Matrigel plugs (hemoglobin content) [10] | chemotaxis of early EPCs [11] | CFU-Hill colonies of early EPCs [12] | VEGF-induced vessels sprouting from aortic rings [13] |
| --- | --- | --- | --- | --- | --- | --- | --- | --- | --- | --- | --- | --- | --- |
| CC(C)[C@H](NC(=O)OCC1c2ccccc2-c2ccccc21)C(=O)N[C@@H](CO)Cc1ccccc1 [Fmoc-10a, (9H-fluoren-9-yl)methyl (S)-1-((R)-1-hydroxy-3-phenylpropan-2-ylamino)-3-methyl-1-oxobutan-2-ylcarbamate] | substantially suppresses lung metastasis | does not induce LDH release | significantly blocks hyperoxia-induced pathological neovascularization | significantly inhibits cell migration | suppresses cell proliferation of late EPCs in a concentration-dependent manner | significantly inhibits | significantly inhibits cell invasion | significantly inhibits | potently blocks tumor growth of melanoma cells in a dose-dependent manner | attenuated concentration-dependently microvessel formation | markedly suppresses chemotaxis | significantly inhibits CFU-Hill colonies | dramatically abrogated VEGF-induced vessels sprouting |
| Avastin: Avastin (10 μg) was used as positive control in the OIR model [reference compound] |  |  | significantly blocks hyperoxia-induced pathological neovascularization |  |  |  |  |  |  |  |  |  |  |
